IC50 data for 16 compounds are collected here from patent publication US8575114B2, “SGLT-2 inhibitors, methods of making them, and uses thereof” (Albany Molecular Research, Inc., priority 2010, dated 2013).

For one experiment, the target named is hSGLT-2 (Homo sapiens (Human), UniProt P31639). Description: [14C]AMG uptake inhibition in CHO-K1/hSGLT-2 cells. It counts as cell-based. The conditions noted are these: 4 μM [14C]AMG, 3-hr incubation at 37° C., read-out: SGLT2, IC50. The protocol:
The inhibitory activity of the compounds of this invention against the SGLT-1 or SGLT-2 transporters can be determined by the following assay. […] CHO-K1 cells transfected with pcDNA3.1 (Invitrogen Corp., Carlsbad, Calif.) containing either the full-length hSGLT-1 or hSGLT-2 using Lipofectamine 2000 (Invitrogen Corp., Carlsbad, Calif.) were selected for stable incorporation of the construct by resistance to the selective pressure of Geneticin (450 μg/ml; Invitrogen Corp., Carlsbad, Calif.). Monoclonal cell lines isolated by minimal dilution were screened for uptake activity of radiolabled methyl α-D-glucopyranoside ([^14C]AMG), a non-metabolizable glucose analogue, and a single clone for each transporter was selected for maximal transporter activity to be used for evaluating the inhibitory activity of the compounds of this invention. In brief, 35,000 cells (CHO-K1/hSGLT-1 or CHO-K1/hSGLT-2) were plated per well of a black tissue culture treated 96-well plate in Ham's F12 media supplemented with 10% heat inactivated FBS and allowed to attached overnight at 37° C. and 5% CO2. Compounds were serially diluted 3-fold in DMSO generating a nine (9) data point dose response curve for each compound. Two replicates were performed per determination. […] Following a 3-hr incubation at 37° C. and 5% CO2, the uptake reaction was stopped by washing the cells three (3) times with ice-cold D-PBS and then lysing the cells with 50 μl of Microscint-20. […] Data were fit to an empirical four-parameter model to determine the inhibitor concentration at half-maximal response (IC50). The assay window was established by control wells incubated with [^14C]AMG in the presence or absence of sodium. A dose response curve for phlorizin was generated on every plate as a positive control.

For a further experiment, the target named is hSGLT-1 (Homo sapiens (Human), UniProt P13866). The experiment in a line: [14C]AMG uptake inhibition in CHO-K1/hSGLT-1 cells. In kind it is cell-based. The conditions noted are these: 4 μM [14C]AMG, 3-hr incubation at 37° C., read-out: SGLT-1, IC50. The source says:
The inhibitory activity of the compounds of this invention against the SGLT-1 or SGLT-2 transporters can be determined by the following assay. The cDNAs for the human genes of SGLT-1 (SLC5A1—solute carrier family 5 sodium/glucose cotransporter member 1; Accession #NM_000343.1) or SGLT-2 (SLC5A2—member 2; Accession #NM_003041.2) were synthesized (OriGene Technologies, Inc.) and sub-cloned into the mammalian expression vector, pcDNA3.1 (Invitrogen Corp., Carlsbad, Calif.) using standard molecular biology techniques. CHO-K1 cells transfected with pcDNA3.1 (Invitrogen Corp., Carlsbad, Calif.) containing either the full-length hSGLT-1 or hSGLT-2 using Lipofectamine 2000 (Invitrogen Corp., Carlsbad, Calif.) were selected for stable incorporation of the construct by resistance to the selective pressure of Geneticin (450 μg/ml; Invitrogen Corp., Carlsbad, Calif.). Monoclonal cell lines isolated by minimal dilution were screened for uptake activity of radiolabled methyl α-D-glucopyranoside ([^14C]AMG), a non-metabolizable glucose analogue, and a single clone for each transporter was selected for maximal transporter activity to be used for evaluating the inhibitory activity of the compounds of this invention. In brief, 35,000 cells (CHO-K1/hSGLT-1 or CHO-K1/hSGLT-2) were plated per well of a black tissue culture treated 96-well plate in Ham's F12 media supplemented with 10% heat inactivated FBS and allowed to attached overnight at 37° C. and 5% CO2. Compounds were serially diluted 3-fold in DMSO generating a nine (9) data point dose response curve for each compound. Two replicates were performed per determination. The compounds were then diluted into Uptake Buffer (10 mM Hepes, 5 mM Tris, 137 mM NaCl, 5.4 mM KCl, 2.8 mM CaCl2, and 1.2 mM MgSO4, pH 7.4) with a final DMSO concentration of 0.9% (v/v). After the overnight incubation and prior to compound treatment, the cells were washed twice with Sodium Free Buffer in which the sodium chloride was replaced with 137 mM Choline Chloride, and then incubated with 4 μM [^14C]AMG in Uptake Buffer in the presence or absence of diluted compound. Following a 3-hr incubation at 37° C. and 5% CO2, the uptake reaction was stopped by washing the cells three (3) times with ice-cold D-PBS and then lysing the cells with 50 μl of Microscint-20. After 15-min, the amount of radioactivity that was incorporated into the cells was quantified using a Microbeta reader. Data were fit to an empirical four-parameter model to determine the inhibitor concentration at half-maximal response (IC50). The assay window was established by control wells incubated with [^14C]AMG in the presence or absence of sodium. A dose response curve for phlorizin was generated on every plate as a positive control.

The structures appear in SMILES notation. Bounds are passed on as bounds.

Chain of hSGLT-2 (P31639 whole entry): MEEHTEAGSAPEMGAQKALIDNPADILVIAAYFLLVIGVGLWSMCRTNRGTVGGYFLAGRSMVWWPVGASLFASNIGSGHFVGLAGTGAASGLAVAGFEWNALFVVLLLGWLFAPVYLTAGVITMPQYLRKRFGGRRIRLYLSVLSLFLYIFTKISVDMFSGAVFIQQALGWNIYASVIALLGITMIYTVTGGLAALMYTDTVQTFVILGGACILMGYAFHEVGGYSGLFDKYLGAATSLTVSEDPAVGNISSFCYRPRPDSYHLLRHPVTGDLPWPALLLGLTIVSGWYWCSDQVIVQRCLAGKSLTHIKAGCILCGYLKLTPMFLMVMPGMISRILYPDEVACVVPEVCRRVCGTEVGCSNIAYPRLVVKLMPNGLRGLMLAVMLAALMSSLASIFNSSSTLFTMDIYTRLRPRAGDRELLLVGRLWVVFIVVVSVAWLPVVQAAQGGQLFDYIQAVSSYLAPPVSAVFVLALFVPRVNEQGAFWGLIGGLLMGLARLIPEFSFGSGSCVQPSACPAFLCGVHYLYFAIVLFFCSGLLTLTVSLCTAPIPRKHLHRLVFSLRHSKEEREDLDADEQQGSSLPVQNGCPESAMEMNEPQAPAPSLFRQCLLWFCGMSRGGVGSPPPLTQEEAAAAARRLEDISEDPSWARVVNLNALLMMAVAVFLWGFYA
Chain of hSGLT-1 (P13866 whole entry): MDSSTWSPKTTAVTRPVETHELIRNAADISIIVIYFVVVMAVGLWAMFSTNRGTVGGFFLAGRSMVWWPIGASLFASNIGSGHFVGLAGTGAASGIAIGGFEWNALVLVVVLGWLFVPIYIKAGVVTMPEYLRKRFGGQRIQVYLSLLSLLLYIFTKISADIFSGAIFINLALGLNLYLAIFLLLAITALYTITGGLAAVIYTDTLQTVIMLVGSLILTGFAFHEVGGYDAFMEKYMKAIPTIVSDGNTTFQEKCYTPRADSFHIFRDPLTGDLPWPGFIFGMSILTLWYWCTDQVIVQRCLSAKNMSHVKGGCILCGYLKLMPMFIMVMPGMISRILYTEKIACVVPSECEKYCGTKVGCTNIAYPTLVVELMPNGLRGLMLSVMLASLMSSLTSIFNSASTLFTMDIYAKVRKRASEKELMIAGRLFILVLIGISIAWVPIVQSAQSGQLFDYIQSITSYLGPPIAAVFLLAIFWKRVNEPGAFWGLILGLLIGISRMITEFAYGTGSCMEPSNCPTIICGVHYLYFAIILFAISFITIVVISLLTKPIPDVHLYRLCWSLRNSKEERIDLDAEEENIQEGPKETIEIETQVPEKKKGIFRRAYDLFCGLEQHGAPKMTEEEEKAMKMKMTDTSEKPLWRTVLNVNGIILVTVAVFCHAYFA

A word on the IC50: it is the concentration that inhibits the measured activity by half. Turning to `O=c1n(Cc2cc([C@@H]3O[C@H](CO)[C@@H](O)[C@H](O)[C@H]3O)ccc2Cl)nc2ccccn12` [I-1, 2-(2-chloro-5-((2S,3R,4R,5S,6R)-3,4,5-trihydroxy-6-(hydroxymethyl)tetrahydro-2H-pyran-2-yl)benzyl)-[1,2,4]triazolo[4,3-a]pyridin-3(2H)-one], the IC50 was found to be 82.8 nM on hSGLT-2 and 24200 nM at hSGLT-1.

As to `Cc1ccc2nn(Cc3cc([C@@H]4O[C@H](CO)[C@@H](O)[C@H](O)[C@H]4O)ccc3Cl)c(=O)n2c1` [I-2, 2-(2-chloro-5-((2S,3R,4R,5S,6R)-3,4,5-trihydroxy-6-(hydroxymethyl)tetrahydro-2H-pyran-2-yl)benzyl)-6-methyl-[1,2,4]triazolo[4,3-a]pyridin-3(2H)-one], the results for the IC50 on hSGLT-2 and on hSGLT-1 were 129 nM and 67400 nM, respectively.

`O=c1n(Cc2cc([C@@H]3O[C@H](CO)[C@@H](O)[C@H](O)[C@H]3O)ccc2Cl)nc2cc(C(F)(F)F)ccn12` [I-3, 2-(2-chloro-5-((2S,3R,4R,5S,6R)-3,4,5-trihydroxy-6-(hydroxymethyl)tetrahydro-2H-pyran-2-yl)benzyl)-7-(trifluoromethyl)-[1,2,4]triazolo[4,3-a]pyridin-3(2H)-one]: the results for the IC50 on hSGLT-2 and at hSGLT-1 were 273 nM and 49500 nM, respectively. In the same order, the values of `O=c1n(Cc2cc([C@@H]3O[C@H](CO)[C@@H](O)[C@H](O)[C@H]3O)ccc2Cl)nc2ccc(C(F)(F)F)cn12` [I-5, 2-(2-chloro-5-((2S,3R,4R,5S,6R)-3,4,5-trihydroxy-6-(hydroxymethyl)tetrahydro-2H-pyran-2-yl)benzyl)-6-(trifluoromethyl)-[1,2,4]triazolo[4,3-a]pyridin-3(2H)-one] are 991 nM and over 90000 nM. On the same counts, the results for `O=c1n(Cc2cc([C@@H]3O[C@H](CO)[C@@H](O)[C@H](O)[C@H]3O)ccc2Cl)nc2ccc(CO)cn12` [I-6, 2-(2-chloro-5-((2S,3R,4R,5S,6R)-3,4,5-trihydroxy-6-(hydroxymethyl)tetrahydro-2H-pyran-2-yl)benzyl)-6-(hydroxymethyl)-[1,2,4]triazolo[4,3-a]pyridin-3(2H)-one] are 145 nM and over 90000 nM. `OC[C@H]1O[C@@H](c2ccc(Cl)c(Cn3nc4ccccn4c3=S)c2)[C@H](O)[C@@H](O)[C@@H]1O` [I-7, 2-(2-chloro-5-((2S,3R,4R,5S,6R)-3,4,5-trihydroxy-6-(hydroxymethyl)tetrahydro-2H-pyran-2-yl)benzyl)-[1,2,4]triazolo[4,3-a]pyridine-3(2H)-thione]: the IC50 on hSGLT-2 is 316 nM; at hSGLT-1, over 73200 nM. On the same counts, the results for `O=c1n(Cc2cc([C@@H]3O[C@H](CO)[C@@H](O)[C@H](O)[C@H]3O)ccc2Cl)nc2ccc(Cl)cn12` [I-8, 6-chloro-2-(2-chloro-5-((2S,3R,4R,5S,6R)-3,4,5-trihydroxy-6-(hydroxymethyl)tetrahydro-2H-pyran-2-yl)benzyl)-[1,2,4]triazolo[4,3-a]pyridin-3(2H)-one] are 81.1 nM and 61200 nM. For `Cc1ccn2c(=O)n(Cc3cc([C@@H]4O[C@H](CO)[C@@H](O)[C@H](O)[C@H]4O)ccc3Cl)nc2c1` [I-9, 2-(2-chloro-5-((2S,3R,4R,5S,6R)-3,4,5-trihydroxy-6-(hydroxymethyl)tetrahydro-2H-pyran-2-yl)benzyl)-7-methyl-[1,2,4]triazolo[4,3-a]pyridin-3(2H)-one], the IC50 on hSGLT-2 is 109 nM. In the case of `O=c1n(Cc2cc([C@@H]3O[C@H](CO)[C@@H](O)[C@H](O)[C@H]3O)ccc2Cl)nc2ccc(Br)cn12` [I-10, 6-bromo-2-(2-chloro-5-((2S,3R,4R,5S,6R)-3,4,5-trihydroxy-6-(hydroxymethyl)tetrahydro-2H-pyran-2-yl)benzyl)-[1,2,4]triazolo[4,3-a]pyridin-3(2H)-one], the values for the IC50 at hSGLT-2 and on hSGLT-1 were 94.8 nM and 45600 nM, respectively. As for `O=c1n(Cc2cc([C@@H]3O[C@H](CO)[C@@H](O)[C@H](O)[C@H]3O)ccc2Cl)nc2ccc(F)cn12` [I-11, 2-(2-chloro-5-((2S,3R,4R,5S,6R)-3,4,5-trihydroxy-6-(hydroxymethyl)tetrahydro-2H-pyran-2-yl)benzyl)-6-fluoro-[1,2,4]triazolo[4,3-a]pyridin-3(2H)-one], the IC50 at hSGLT-2 stood at 222 nM. Consider `Cc1cc2nn(Cc3cc([C@@H]4O[C@H](CO)[C@@H](O)[C@H](O)[C@H]4O)ccc3Cl)c(=O)n2cc1Cl` [I-12, 6-chloro-2-(2-chloro-5-((2S,3R,4R,5S,6R)-3,4,5-trihydroxy-6-(hydroxymethyl)tetrahydro-2H-pyran-2-yl)benzyl)-7-methyl-[1,2,4]triazolo[4,3-a]pyridin-3(2H)-one], for which the IC50 was 36.6 nM on hSGLT-2 and over 90000 nM at hSGLT-1.

Consider `O=c1n(Cc2cc([C@@H]3O[C@H](CO)[C@@H](O)[C@H](O)[C@H]3O)ccc2Cl)nc2cc(CO)ccn12` [I-14, 2-(2-chloro-5-((2S,3R,4R,5S,6R)-3,4,5-trihydroxy-6-(hydroxymethyl)tetrahydro-2H-pyran-2-yl)benzyl)-7-(hydroxymethyl)-[1,2,4]triazolo[4,3-a]pyridin-3(2H)-one], for which the IC50 at hSGLT-2 is 170 nM; at hSGLT-1, over 90000 nM. On to `O=c1n(Cc2cc([C@@H]3O[C@H](CO)[C@@H](O)[C@H](O)[C@H]3O)ccc2Cl)nc2ccc(CCO)cn12` [I-15, 2-(2-chloro-5-((2S,3R,4R,5S,6R)-3,4,5-trihydroxy-6-(hydroxymethyl)tetrahydro-2H-pyran-2-yl)benzyl)-6-(2-hydroxyethyl)-[1,2,4]triazolo[4,3-a]pyridin-3(2H)-one], for which the IC50 is 463 nM at hSGLT-2 and over 90000 nM on hSGLT-1. In the same order, the values of `OC[C@H]1O[C@@H](c2ccc(Cl)c(Cc3ccc4ncnn4c3)c2)[C@H](O)[C@@H](O)[C@@H]1O` [II-1, (2S,3R,4R,5S,6R)-2-(3-([1,2,4]triazolo[1,5-a]pyridin-6-ylmethyl)-4-chlorophenyl)-6-(hydroxymethyl)tetrahydro-2H-pyran-3,4,5-triol] are 226 nM and over 90000 nM.

Turning to `O=c1c2ccoc2ccn1Cc1cc([C@@H]2O[C@H](CO)[C@@H](O)[C@H](O)[C@H]2O)ccc1Cl` [II-2, 5-(2-chloro-5-((2S,3R,4R,5S,6R)-3,4,5-trihydroxy-6-(hydroxymethyl)tetrahydro-2H-pyran-2-yl)benzyl)furo[3,2-c]pyridin-4(5H)-one], the IC50 was found to be 542 nM on hSGLT-2 and 71500 nM at hSGLT-1.

For `O=C1CN(c2ccc(Cc3cc([C@@H]4O[C@H](CO)[C@@H](O)[C@H](O)[C@H]4O)ccc3Cl)cc2)C(=O)N1C(c1ccccc1)(c1ccccc1)c1ccccc1` [III-1, 1-(4-(2-chloro-5-((2S,3R,4R,5S,6R)-3,4,5-trihydroxy-6-(hydroxymethyl)tetrahydro-2H-pyran-2-yl)benzyl)phenyl)-3-tritylimidazolidine-2,4-dione], the IC50 worked out at 329 nM at hSGLT-2 and 6250 nM at hSGLT-1.
